Measurements as given in patent US8975442B2, “Process for the preparation of and crystalline forms of optical enantiomers of modafinil” (Teva Sante, priority 2002, dated 2015).

Legend:
Type in all cases: physicochemical
[1] = Solubility of modafinil acid in methanol
Description: Solubility of the Racemic Mixture in Methanol:

[2] = Solubility of modafinil acid in 2-methoxyethanol
Description: Solubility of the Racemic Mixture in 2-Methoxyethanol: […]

[3] = Solubility of modafinil acid in ethanol
Description: Solubility of the Racemic Mixture in Ethanol:

Row | Structure (SMILES) | Solubility by mass ([1]; 10.0 °C) | ratio α (ratio of solubilities s(±)/s(+)) ([1]; 20 °C) | Solubility by mass ([1]; 20.0 °C) | Solubility by mass ([1]; 30.0 °C) | Solubility by mass ([1]; 40.0 °C) | Solubility by mass ([2]; 10.0 °C) | ratio α (ratio of solubilities s(±)/s(+)) ([2]; 20 °C) | Solubility by mass ([2]; 20.0 °C) | Solubility by mass ([2]; 30.0 °C) | Solubility by mass ([2]; 40.0 °C) | Solubility by mass ([3]; 10.0 °C) | ratio α (ratio of solubilities s(±)/s(+)) ([3]; 20 °C) | Solubility by mass ([3]; 20.0 °C) | Solubility by mass ([3]; 30.0 °C)
1 | O=C(O)C[S+]([O-])C(c1ccccc1)c1ccccc1 (racemic) [(±)-modafinil acid, (±)-benzhydrylsulphinylacetic acid] | 7.4% | 2.53 | 9.7% | 13.9% | 25.7% | 7.4% | 2.53 | 8% | 13.5% | 16% | 3.0% | 2.06 | 4.1% | 5.96%
2 | O=C(O)C[S+]([O-])C(c1ccccc1)c1ccccc1 (single isomer, unassigned; (+)) [(+)-antipode] |  |  | 4.9% |  |  |  |  | 4% |  |  |  |  | 1.99% | 
